Read-outs that look alike come from different tables or passages of the source.
Experiments:
[1] = Solubility under experimental conditions of the 5-HT1A assay; type: physicochemical; settings: reason for not testing in 5-HT1A assay
Description: Compounds were dissolved in 9.5% DMSO and 0.5% Kolliphor® EL (Sigma Aldrich, Taufkirchen, Germany). Serial dilutions of the compounds tested (10^−10–10^−5 M) were incubated in triplicate with 0.8 nM [^35S]GTPγS in assay buffer (50 mM Tris-HCl, pH = 7.4, 1 mM EGTA, 3 mM MgCl2, 100 mM NaCl, 30 µM GDP) and 8-OH-DPAT (final concentration 1.4 × 10^−7 M) in the final assay volume of 250 µL. Hippocampal homogenates (15 μg/mL) were added to each tube as the 5-HT1A receptor source. The final DMSO and Kolliphor® EL concentrations were 0.95% and 0.05%, respectively. Non-specific binding was determined with 10 µM of unlabeled GTPγS. The reaction mixture was incubated for 90 min at 37 °C in a volume of 250 µL. Next, 96-well Unifilter® Plates (Perkin Elmer, Waltham, MA, USA) were presoaked for 1 h with 50 mM Tris-HCl (pH = 7.4) before harvesting. The reaction was terminated by vacuum filtration onto filter plates with the FilterMate Harvester® (Perkin Elmer, Waltham, MA, USA). The samples were then rapidly washed with 2 mL of 50 mM Tris-HCl (pH = 7.4) buffer. Filter plates were dried for 2 h at 50 °C. After drying, 45 µL of EcoScint-20 scintillant (Perkin Elmer) was added to every well. Radioactivity was counted in a Trilux MicroBeta^2 counter (Perkin Elmer). Data were analyzed with GraphPad Prism 5.0 software (GraphPad Software, San Diego, CA, USA, www.graphpad.com). Curves were fitted with a one-site non-linear regression model. Efficacy (Emax) and half maximal inhibitory concentration (IC50) were calculated from the Cheng–Prusoff equation and expressed as means ± SEM.

5-HT2A receptor = target: T1, 5-HT2A receptor (Rattus norvegicus, UniProt P14842); assay: 5-HT2A competition binding assay, [3H]ketanserin, frontal cortex homogenates; settings: [3H]ketanserin 1 nM, read-out: Ki (nM ± SEM) (converted)
T1 construct: from tissue; host or cells: rat frontal cortex (male SD), membrane homogenate

5-HT1A receptor [2] = target: T2, 5-HT1A receptor (Rattus norvegicus, UniProt P19327); assay: G-protein enhancing (agonist) effect at the 5-HT1A receptor; type: biochemical
T2 construct: Hippocampal homogenates (15 μg/mL) were added to each tube as the 5-HT1A receptor source; from tissue; host or cells: rat hippocampus (male Sprague-Dawley), membrane homogenate
T2 sequence (P19327 1-422): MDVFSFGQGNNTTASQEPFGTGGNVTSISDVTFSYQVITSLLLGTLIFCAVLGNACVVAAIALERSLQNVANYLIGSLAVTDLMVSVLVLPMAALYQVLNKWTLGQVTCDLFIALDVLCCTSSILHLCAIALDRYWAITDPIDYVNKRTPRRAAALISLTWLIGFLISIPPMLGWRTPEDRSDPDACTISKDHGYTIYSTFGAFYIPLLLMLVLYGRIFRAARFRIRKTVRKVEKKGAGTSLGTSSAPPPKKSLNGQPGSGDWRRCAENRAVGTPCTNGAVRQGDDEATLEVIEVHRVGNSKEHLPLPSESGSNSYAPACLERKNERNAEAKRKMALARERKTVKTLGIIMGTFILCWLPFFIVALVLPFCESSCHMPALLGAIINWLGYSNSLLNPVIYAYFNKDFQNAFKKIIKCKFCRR

5-HT1A receptor [3] = settings: previously synthesized coumarins derivatives, Figure 1; read-out: Ki, 5-HT1A receptor affinity; cited from earlier work
[4] = G-protein enhancing effect, 5-HT1A

T1 sequence (P14842 whole entry): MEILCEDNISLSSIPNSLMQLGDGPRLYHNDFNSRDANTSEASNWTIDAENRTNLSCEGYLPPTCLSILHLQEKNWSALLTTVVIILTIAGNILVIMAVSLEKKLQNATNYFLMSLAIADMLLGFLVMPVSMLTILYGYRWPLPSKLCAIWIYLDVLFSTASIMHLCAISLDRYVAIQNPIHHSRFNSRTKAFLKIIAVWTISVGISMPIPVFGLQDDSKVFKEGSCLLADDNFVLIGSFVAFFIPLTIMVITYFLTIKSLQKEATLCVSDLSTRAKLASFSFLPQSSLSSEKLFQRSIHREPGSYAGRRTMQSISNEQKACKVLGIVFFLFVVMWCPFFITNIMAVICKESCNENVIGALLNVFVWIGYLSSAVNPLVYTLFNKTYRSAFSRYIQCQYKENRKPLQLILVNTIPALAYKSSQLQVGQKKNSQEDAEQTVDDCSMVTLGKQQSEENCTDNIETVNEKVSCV

| melting point [°C] | solubility under experimental conditions [1] | SMILES | Ki (5-HT1A receptor [3]) [nM] | further results |
| --- | --- | --- | --- | --- |
| 132 to 134 | very poor solubility | Cc1ccc(C)c(N2CCN(CCCCCOc3cc(C)cc4oc(=O)cc(C)c34)CC2)c1 [Compound 1d, 5-(5-(4-(2,5-dimethylphenyl)piperazin-1-yl)pentyloxy)-4,7-dimethyl-2H-chromen-2-one] | – | – |
| 107 to 109 | very poor solubility | Cc1cc(OCCCCCN2CCN(c3cccc(Br)c3)CC2)c2c(C)cc(=O)oc2c1 [Compound 1g, 5-(5-(4-(3-bromophenyl)piperazin-1-yl)pentyloxy)-4,7-dimethyl-2H-chromen-2-one] | – | – |
| 126 to 127 | – | Cc1cc(OCCN2CCN(c3cccc(Br)c3)CC2)c2c(C)cc(=O)oc2c1 [Compound 2g, 5-(4-(4-(3-bromophenyl)piperazin-1-yl)ethoxy)-4,7-dimethyl-2H-chromen-2-one] | – | Ki (5-HT2A receptor): 3540 nM; Emax (5-HT1A receptor [2]; [4]): 118 ± 6.5%; Emax (% ± SEM) (5-HT1A receptor [2]; [4]): 113 ± 6.5%; EC50 (5-HT1A receptor [2]; G-protein enhancing effect, 5-HT1A, read-out: EC50 (nM ± SEM)): 5080 ± 2640 nM; EC50 (5-HT1A receptor [2]; G-protein enhancing effect, 5-HT1A, read-out: pEC50 (converted)): 6310 nM; functional character at the 5-HT1A receptor (5-HT1A receptor [2]; in words): weak partial agonists |
| 116 to 118 | very poor solubility | CC(=O)c1c(C)cc2oc(=O)cc(C)c2c1OCCCCCN1CCN(c2ccccc2C#N)CC1 [Compound 3j, 6-acetyl-5-(5-(4-(2-cyanophenyl)piperazin-1-yl)pentyloxy)-4,7-dimethyl-2H-chromen-2-one] | – | – |
| 110 to 112 | very poor solubility | CC(=O)c1c(OCCN2CCN(c3cccc(Br)c3)CC2)ccc2c(C)cc(=O)oc12 [Compound 6g, 8-acetyl-7-(2-[4-(3-bromohenyl)piperazin-1-yl]ethoxy)-4-methylchromen-2-one] | – | Ki (5-HT2A receptor): 1490 ± 466 nM |
| – | – | Cc1cc(OCCCN2CCN(c3ccccc3F)CC2)c2c(C)cc(=O)oc2c1 [IIa] | 1.7 ± 0.005 | – |
| – | – | Cc1cc(OCCCCN2CCN(c3ccccc3F)CC2)c2c(C)cc(=O)oc2c1 [IIb] | 3 ± 0.1 | – |
| – | – | Cc1cc(OCCCN2CCN(c3cccc(Cl)c3Cl)CC2)c2c(C)cc(=O)oc2c1 [IIc] | 8 ± 0.04 | – |
| – | – | Cc1cc(OCCCCN2CCN(c3cccc(Cl)c3Cl)CC2)c2c(C)cc(=O)oc2c1 [IId] | 4 ± 0.8 | – |
| – | – | Cc1cc(OCCCN2CCN(c3ccccc3C#N)CC2)c2c(C)cc(=O)oc2c1 [IIe] | 1.5 ± 0.2 | – |
| – | – | Cc1cc(OCCCCN2CCN(c3ccccc3C#N)CC2)c2c(C)cc(=O)oc2c1 [IIf] | 3 ± 0.2 | – |
